According to US4507487A, “Chemical compounds” (Bristol-Myers Company, priority 1983, dated 1985):
Converted amounts (≈) assume the structure as drawn. Where two headings read alike, the source gives them in different places.

How the values were obtained:
Ps. aeruginosa = test: MIC, two-fold serial agar dilution in Mueller-Hinton agar, group (G-)-III; format: cell-based; conditions: Pseudomonas aeruginosa, Ps. aeruginosa (6 strains), read-out: Geometric Mean of MIC
Procedure: (§1) In the primary evaluation of the compounds of this invention, the Minimum Inhibitory Concentrations (MIC's) of the compounds were determined by the two-fold serial agar dilution method in Mueller-Hinton agar against 32 strains of test organisms in six groups.

S. aureus Smith = test: MIC against specific test organism; format: cell-based; conditions: Staphylococcus aureus, read-out: Minimum Inhibitory Concentration
Procedure: as §1
(§2) The test method was as described for Table 1.

Ps. aeruginosa A15150 = test: MIC against specific test organism; format: cell-based; conditions: Pseudomonas aeruginosa, read-out: Minimum Inhibitory Concentration
Procedure: as §1, §2

K. pneumoniae A9867 = test: MIC against specific test organism; format: cell-based; conditions: Klebsiella pneumoniae; K. pneumoniae A9867, cephalothin-resistant strain; read-out: Minimum Inhibitory Concentration
Procedure: as §1, §2

Ps. aeruginosa A20717 = test: MIC against specific test organism; format: cell-based; conditions: Pseudomonas aeruginosa, read-out: Minimum Inhibitory Concentration
Procedure: as §1, §2

E. coli Juhl = test: MIC against specific test organism; format: cell-based; conditions: Escherichia coli, read-out: Minimum Inhibitory Concentration
Procedure: as §1, §2

Ser. marcescens A20019 = test: MIC against specific test organism; format: cell-based; conditions: Serratia marcescens, read-out: Minimum Inhibitory Concentration
Procedure: as §1, §2

Ent. cloacae A9656 = test: MIC against specific test organism; format: cell-based; conditions: Enterobacter cloacae, read-out: Minimum Inhibitory Concentration
Procedure: as §1, §2

M. morganii A9553 = test: MIC against specific test organism; format: cell-based; conditions: Morganella morganii, read-out: Minimum Inhibitory Concentration
Procedure: as §1, §2

Ps. aeruginosa A9843 = test: MIC against specific test organism; format: cell-based; conditions: Pseudomonas aeruginosa, read-out: Minimum Inhibitory Concentration
Procedure: as §1, §2

K. pneumoniae D11 = test: MIC against specific test organism; format: cell-based; conditions: Klebsiella pneumoniae, read-out: Minimum Inhibitory Concentration
Procedure: as §1, §2

S. aureus BX-1633-2 = test: MIC against specific test organism; format: cell-based; conditions: Staphylococcus aureus, BX16332; S. aureus BX-1633-2, penicillin-resistant strain; read-out: Minimum Inhibitory Concentration
Procedure: as §1, §2

E. coli A15164 = test: MIC against specific test organism; format: cell-based; conditions: Escherichia coli; E. coli A15164, cephalothin-resistant strain; read-out: Minimum Inhibitory Concentration
Procedure: as §1, §2

Pr. mirabilis A9554 = test: MIC against specific test organism; format: cell-based; conditions: Proteus mirabilis, read-out: Minimum Inhibitory Concentration
Procedure: as §1, §2

[1] = Mouse blood levels after single intramuscular injection; format: in vivo, mice; conditions: for concentration at 0.5 h: 30 minutes; for concentration at 1 h: 60 minutes
Procedure: The absorption of some of the preferred compounds were determined in mice following a single intramuscular injection of the test compound (dissolved in 0.1M phosphate buffer; pH 7) at a dosage of 10, 20 or 40 mg/kg. Blood samples were collected from the orbital sinuses into heparinized capillary tubes and assayed in Nutrient Agar (pH 6.6) using E. coli Ess-22-31 as the test organism. The blood levels at various time intervals, the half-life values (t1/2) and the areas under the curve (AUC) are shown in Table 3.

[2] = system: Cephalothinsensitive E. coli, Kl. pneumoniae and Pr. mirabilis; test: MIC, two-fold serial agar dilution in Mueller-Hinton agar, group (G-)-Ia; format: cell-based; conditions: (G-)-Ia, cephalothin-sensitive E. coli (2), Kl. pneumoniae (1), Pr. mirabilis (2 strains); read-out: Geometric Mean of MIC
Procedure: as §1
(G-)Ia: Cephalothinsensitive E. coli (2 strains), Kl. pneumoniae (1
strain) and Pr. mirabilis (2 strains)

[3] = system: Cephalothinresistant E. coli and Kl. pneumoniae; test: MIC, two-fold serial agar dilution in Mueller-Hinton agar, group (G-)-Ib; format: cell-based; conditions: read-out: Geometric Mean of MIC
Procedure: as §1
(G-)Ib: Cephalothinresistant E. coli (3 strains) and Kl. pneumoniae (3

[4] = system: Penicillinsensitive S. aureus; test: MIC, two-fold serial agar dilution in Mueller-Hinton agar, group (G+)-Ia; format: cell-based; conditions: Staphylococcus aureus; (G+)-Ia, penicillin-sensitive S. aureus (5 strains); read-out: Geometric Mean of MIC
Procedure: as §1

[5] = system: Penicillinresistant S. aureus; test: MIC, two-fold serial agar dilution in Mueller-Hinton agar, group (G+)-Ib; format: cell-based; conditions: Staphylococcus aureus, read-out: Geometric Mean of MIC
Procedure: as §1
(G+)Ib: Penicillinresistant S. aureus (5 strains)

[6] = system: M. morganii, Ent. cloacae and Ser. marcescens; test: MIC, two-fold serial agar dilution in Mueller-Hinton agar, group (G-)-II; format: cell-based; conditions: (G-)-II, M. morganii (1), Ent. cloacae (2), Ser. marcescens (2 strains); read-out: Geometric Mean of MIC
Procedure: as §1
(G-)II: M. morganii (1 strain), Ent. cloacae (2 strains) and Ser.

[7] = 10 mg/kg im, read-out: Mouse Blood Level
[8] = 20 mg/kg im, read-out: Mouse Blood Level
[9] = 40 mg/kg im, read-out: Mouse Blood Level

SMILES: CSc1scc[n+]1CC1=C(C(=O)[O-])N2C(=O)C(NC(=O)/C(=N\OC3(C(=O)O)CCC3)c3csc(N)n3)[C@H]2SC1 (stereo partly drawn) [Example 2, 7-[(Z)-2-(2-Aminothiazol-4-yl)-2-(1-carboxycyclobut-1-oxyimino)acetamido]-3-(2-methylthiothiazolio)methyl-3-cephem-4-carboxylate]
- MIC (Ps. aeruginosa): 1.8 µg/mL (≈ 2.95 µM)
- MIC (S. aureus Smith): 1.6 µg/mL (≈ 2.62 µM)
- MIC (Ps. aeruginosa A15150): 0.8 µg/mL (≈ 1.31 µM)
- MIC (K. pneumoniae A9867): 3.1 µg/mL (≈ 5.08 µM)
- MIC (Ps. aeruginosa A20717): 6.3 µg/mL (≈ 10.3 µM)
- MIC (E. coli Juhl): 0.1 µg/mL (≈ 0.164 µM)
- MIC (Ser. marcescens A20019): 0.1 µg/mL (≈ 0.164 µM)
- MIC (Ent. cloacae A9656): 0.05 µg/mL (≈ 0.0819 µM)
- MIC (M. morganii A9553): 0.2 µg/mL (≈ 0.327 µM)
- MIC (Ps. aeruginosa A9843): 1.6 µg/mL (≈ 2.62 µM)
- MIC (K. pneumoniae D11): 0.05 µg/mL (≈ 0.0819 µM)
- MIC (S. aureus BX-1633-2): 3.1 µg/mL (≈ 5.08 µM)
- MIC (E. coli A15164): 0.4 µg/mL (≈ 0.655 µM)
- MIC (Pr. mirabilis A9554): 0.025 µg/mL (≈ 0.0409 µM)
- AUC ([1]; 10 mg/kg im): 3600 ng·h/mL
- half-life ([1]; 10 mg/kg im): 17 min
- concentration at 10 min [1, 7]: 8400 ng/mL
- concentration at 20 min [1, 7]: 5500 ng/mL
- concentration at 0.5 h [1, 7]: 3700 ng/mL
- concentration at 40 min [1, 7]: < 1600 ng/mL
- AUC ([1]; 20 mg/kg im): 9000 ng·h/mL
- half-life ([1]; 20 mg/kg im): 11 min
- concentration at 10 min [1, 8]: 22000 ng/mL
- concentration at 20 min [1, 8]: 15000 ng/mL
- concentration at 0.5 h [1, 8]: 8600 ng/mL
- concentration at 40 min [1, 8]: 5700 ng/mL
- concentration at 50 min [1, 8]: 2400 ng/mL
- concentration at 1 h [1, 8]: < 1600 ng/mL
- AUC ([1]; 40 mg/kg im): 16000 ng·h/mL
- half-life ([1]; 40 mg/kg im): 11 min
- concentration at 10 min [1, 9]: 43000 ng/mL
- concentration at 20 min [1, 9]: 27000 ng/mL
- concentration at 0.5 h [1, 9]: 14000 ng/mL
- concentration at 40 min [1, 9]: 7500 ng/mL
- concentration at 50 min [1, 9]: 3800 ng/mL
- concentration at 1 h [1, 9]: 2300 ng/mL
- concentration at 1.5 h ([1]; 40 mg/kg im, 90 minutes, read-out: Mouse Blood Level): < 1600 ng/mL
- MIC [2]: 0.025 µg/mL (≈ 0.0409 µM)
- MIC [3]: 0.4 µg/mL (≈ 0.655 µM)
- MIC [4]: 0.92 µg/mL (≈ 1.51 µM)
- MIC [5]: 2.7 µg/mL (≈ 4.42 µM)
- MIC [6]: 0.2 µg/mL (≈ 0.327 µM)
